Laboratory results from US6369057B1, “Quinoxalines, processes for their preparation and their use” (Aventis Pharma Deutschland GmbH, priority 1991, dated 2002).
In brackets after ≈: the same amount, converted by molar mass.

What was measured:
HIV = experiment: Test of preparations against HIV in cell culture (T-cell culture assay); assay type: cell-based; conditions: Human immunodeficiency virus 1, 72 h; lowest concentration where no giant cells were observed; HIV-infected lymphocytes from donor blood, 3 days at 37° C.
Procedure: Test of Preparations Against HIV in Cell Culture
Complete medium additionally contains 20% fetal calf serum and 40 IU/ml recombinant interleukin 2.
Lymphocytes which have been isolated from fresh donor blood by means of Ficoll gradient centrifugation are cultured for 36 hours in complete medium with an addition of 2 μg/ml phytohemagglutinin (Wellcome) at 37° C. under 5% of CO2. After 10% of DMSO has been added, the cells are frozen at a density of 5 [formula]10^6 and stored in liquid nitrogen. For the test, the cells are defrosted, washed in RPMI medium and cultured for 3-4 days in the complete medium.
The test preparations were dissolved in DMSO at a concentration of 16.7 mg/ml and diluted in complete medium to 1 mg/ml.
0.4 ml of medium was introduced into 24-multiwell dishes. 0.1 ml of the dissolved preparation was added to the upper row of the dish, and, by transferring 0.1 ml portions, a geometric dilution series was established. Controls without preparation always contained 0.4 ml of complete medium containing 0.5% of DMSO. Lymphocyte cultures with a cell density of 5 [formula]10^5 cells/ml were infected by adding 1/50 volume supernatant from HIV-infected lymphocyte cultures. The titer of these culture supernatants was determined by end-point titration as 1-5 [formula]10^6 infectious units/ml. After 30 minutes' incubation at 37° C., the infected lymphocytes were removed by centrifugation and taken up in an equal volume of medium. From this cell suspension, 0.6 ml aliquots were transferred into all wells of the test plate. The mixtures were incubated for 3 days at 37° C.
The infected cell cultures were examined under the microscope for the presence of giant cells, which indicate active virus multiplication in the culture. The lowest concentration of preparation where no giant cells were observed was determined as inhibitory concentration against HIV. As a control, the supernatants from the culture plates were tested for the presence of HIV antigen with the aid of an HIV antigen test following the manufacturer's instructions (Organon).

[1] = molecular target: T1, HIV reverse transcriptase (RT) (Human immunodeficiency virus type 1 group M subtype B, UniProt P03366); experiment: Assay for HIV reverse transcriptase inhibition (scintillation proximity assay); assay type: biochemical; conditions: RT from HIV cloned in E. coli; SPA, 60 minutes (37° C.); read-out: Reverse Transcriptase Assay IC50 (converted)
T1 construct: The enzyme RT (from HIV cloned in E. coli); purchased HT-Biotechnology Ltd, Cambridge, UK; host or cells: E. coli
Procedure: Assay of the Substances for HIV Reverse Transcriptase Inhibition
The activity of reverse transcriptase (RT) was determined with the aid of a scintillation proximity assay (SPA).
The reagent kit for the RT-SPA was obtained from Amersham/Buchler (Braunschweig).
The enzyme RT (from HIV cloned in E. coli) originated from HT-Biotechnology Ltd, Cambridge, UK.
The assay was carried out using the manufacturer's (Amersham) protocol manual, with the following modifications: bovine serum albumin was added to the assay buffer to give an end concentration of 0.5 mg/ml the assay was carried out in Eppendorf reaction vessels, using 100 μl volume per batch the manufacturer's RT concentrate (5000 U/ml) was diluted in Tris-HCl buffer 20 mM; pH 7.2; 30% of glycerol, to an activity of 15 U per ml the incubation time for the mixtures was 60 minutes (37° C.) after stopping the reaction and “developing” with the bead suspension, 130 μl of mixture were transferred to 4.5 ml of Tris-HCl buffer, 10 mM; pH 7.4; 0.15 M NaCl, and the tritium activity was measured by means of a [formula]-counter.
For a pre-assay for inhibitory activity, the substances were dissolved in DMSO (stock solution c=1 mg/ml), and tested as a 10^−1, 10^−2, 10^−3, etc., dilution in DMSO.
To determine IC50 values, the inhibitor stock solutions were diluted further in Tris-HCl buffer, 50 mM, pH 8, and tested in suitable concentrations.
The concentration corresponding to a 50% enzyme inhibition was determined from a plot of RT activity versus log Clnh.

Compound	melting point	MIC (HIV)	IC50 [1]
C[C@@H]1Nc2cc(Cl)ccc2NC1=O [Example IB, (3S)-6-Chloro-3-methyl-3,4-dihydroquinoxalin-2(1H)-one]	122 to 123 °C		
C[C@H]1Nc2cc(Cl)ccc2NC1=O [Example IC, (3R)-6-Chloro-3-methyl-3,4-dihydroquinoxalin-2(1H)-one]	123 to 124 °C		
O=C1Nc2cc(Cl)ccc2N[C@H]1Cc1ccccc1 [Example II, (3S)-3-Benzyl-7-chloro-3,4-dihydroquinoxalin-2(1H)-one]	185 °C		
C[C@H]1C(=O)Nc2c(cc(Cl)cc2[N+](=O)[O-])N1C(=O)OCc1ccccc1 [Example IV, (3S)-4-N-(Benzyloxycarbonyl)-6-chloro-3-methyl-8-nitro-3,4-dihydroquinoxalin-2(1H)-one]	85 °C	> 0.8 µg/mL	
C[C@H]1C(=O)Nc2c(N)cc(Cl)cc2N1C(=O)OCc1ccccc1 [Example V, (3S)-8-Amino-4-N-(benzyloxycarbonyl)-6-chloro-3-methyl-3,4-dihydroquinoxalin-2(1H)-one]	152 to 154 °C		21700 nM
C[C@H]1C(=O)Nc2ccc(Cl)cc2N1C(=O)Oc1ccc(F)cc1 [Example X, (3S)-6-Chloro-4-N-(4-fluorophenoxycarbonyl)-3-methyl-3,4-dihydroquinoxalin-2(1H)-one]	168 to 170 °C	0.8 µg/mL (≈ 2.39 µM)	
C[C@H]1C(=O)Nc2ccc(Cl)cc2N1C(=O)Oc1ccc(Cl)cc1 [Example XI, (3S)-6-Chloro-4-N-(4-chlorophenoxycarbonyl)-3-methyl-3,4-dihydroquinoxalin-2(1H)-one]	185 to 188 °C		
C[C@H]1C(=O)Nc2ccc(Cl)cc2N1C(=O)OCCBr [Example XII, (3S)-4-N-(2-Bromoethyloxycarbonyl)-6-chloro-3-methyl-3,4-dihydroquinoxalin-2(1H)-one]	133 to 136 °C	< 0.8 µg/mL	
CC(C)=CCN1CC(=O)Nc2ccc(Cl)cc21 [Example XV, 6-Chloro-4-N-(3-methyl-2-buten-1-yl)-3,4-dihydro-quinoxalin-2(1H)-one]	150 to 151 °C		
C=CC(C)(C)C1C(=O)Nc2ccc(Cl)cc2N1CC=C(C)C (centres unmarked) [Example XVI, 6-Chloro-4-N-(3-methyl-2-buten-1-yl)-3-(1,1-dimethyl-2-propen-1-yl)-3,4-dihydroquinoxalin-2(1H)-one]	110 to 112 °C		
COc1cc2c(cc1OC)NC(C)C(=O)N2 (centres unmarked) [Example XVII, 6,7-Dimethoxy-3-methyl-3,4-dihydroquinoxalin-2(1H)-one]	151 °C		
CC(C)=CCN1CC(=O)Nc2cc(S(=O)(=O)Oc3ccccc3)ccc21 [Example XXX, 4-(3-Methyl-2-buten-1-yl)-7-phenoxysulfonyl-3,4-dihydroquinoxalin-2(1H)-one]	132 °C		
C[C@H]1C(=O)Nc2ccc(Cl)cc2N1C(=O)Cl [Example XXXV, (3S)-6-Chloro-4-N-chlorocarbonyl-3-methyl-3,4-dihydroquinoxalin-2(1H)-one]	142 to 144 °C		
COc1ccc(OC(=O)N2c3cc(Cl)ccc3NC(=O)[C@@H]2C)cc1 [IX, (3S)-6-Chloro-4-N-(4-methoxyphenoxycarbonyl)-3-methyl-3,4-dihydroquinoxalin-2(1H)-one]	187 to 190 °C		
CC(C)=CCN1c2cc(Cl)ccc2NC(=O)[C@@H]1C [VI-A, (3S)-6-Chloro-3-methyl-4-N-(3-methyl-2-buten-1-yl)-3,4-dihydroquinoxalin-2(1H)-one]	117 to 118 °C	0.16 µg/mL (≈ 0.604 µM)	302 nM
CC=CCN1c2cc(Cl)ccc2NC(=O)[C@@H]1C [VII, (3S)-6-Chloro-3-methyl-4-N-(2-buten-1-yl)-3,4-dihydroquinoxalin-2(1H)-one]	87 to 88 °C	< 0.16 µg/mL	399 nM
C=C(C)OC(=O)N1c2ccc(C)cc2NC(=O)C1(C)C [VIII, 4-N-(Isopropenyloxycarbonyl)-3,3,7-trimethyl-3,4-di-hydroquinoxalin-2(1H)-one]	185 °C		
C=COC(=O)N1c2cc(Cl)ccc2NC(=O)[C@@H]1C [XIV, (3S)-6-Chloro-3-methyl-4-N-(vinyloxycarbonyl)-3,4-di-hydroquinoxalin-2(1H)-one]	177 to 179 °C	< 0.16 µg/mL	600 nM
CC1(C)Nc2ccc(Cl)cc2N(C2CC2)C1=O [XIX, 7-Chloro-1-N-(cyclopropyl)-3,3-dimethyl-3,4-dihydroquinoxalin-2(1H)-one]	132 to 133 °C		
C=C(C)OC(=O)N1c2cc(Cl)ccc2NC(=S)[C@@H]1C [XXIII, (3S)-6-Chloro-4-N-(isopropenyloxycarbonyl)-3-methyl-3,4-dihydroquinoxaline-2(1H)-thione]	148 to 150 °C	< 0.01 µg/mL	84.2 nM
O=C1CNc2ccc(S(=O)(=O)Oc3ccccc3)cc2N1 [XXIX, 7-Phenoxysulfonyl-3,4-dihydroquinoxalin-2(1H)-one]	253 to 254 °C		
O=C1Nc2cc(S(=O)(=O)Oc3ccccc3)ccc2N2C(=O)CCC12 (centres unmarked) [XXVII, 7-Phenoxysulfonyl-3,3a-dihydropyrrolo[1,2-a]quinoxaline-1,4(2H,5H)-dione]	140 °C (dec.)		
COCCOC(=O)N1c2cc(Cl)ccc2NC(=O)[C@@H]1C [XXXVI, (3S)-6-Chloro-4-N-(2-methoxyethoxycarbonyl)-3-methyl-3,4-dihydroquinoxalin-2(1H)-one]	93 to 94 °C		
